This is an account of results in US11976073B2, “Bicyclic amines as CDK2 inhibitors” (Incyte Corporation, priority 2021, dated 2024).

A value given as a limit tells only on which side of the number the result lay.

One experiment has as its target T1, CDK2/Cyclin E1 (Homo sapiens, UniProt P24941).
T1 construct: utilize full-length human CDK2 co-expressed as N-terminal GST-tagged protein; GST (N); purchased Carna 04-165; host or cells: baculovirus expression system
In words: CDK2/Cyclin E1 HTRF enzyme activity assay. Format: biochemical. To be noted: 1 mM ATP. As for the experimental part:
Example A. CDK2/Cyclin E1 HTRF Enzyme Activity Assay
CDK2/Cyclin E1 enzyme activity assays utilize full-length human CDK2 co-expressed as N-terminal GST-tagged protein with FLAG-Cyclin E1 in a baculovirus expression system (Carna Product Number 04-165). Assays were conducted in white 384-well polystyrene plates in a final reaction volume of 8 μL. CDK2/Cyclin E1 (0.25 nM) was incubated with the compounds of the Examples (40 nL serially diluted in DMSO) in the presence of ATP (50 μM or 1 mM) and 50 nM ULight™-labeled eIF4E-binding protein 1 (THR37/46) peptide (PerkinElmer) in assay buffer (containing 50 mM HEPES pH 7.5, 1 mM EGTA, 10 mM MgCl2, 2 mM DTT, 0.05 mg/mL BSA, and 0.01% Tween 20) for 60 minutes at room temperature. The reactions were stopped by the addition of EDTA and Europium-labeled anti-phospho-4E-BP1 antibody (PerkinElmer), for a final concentration of 15 mM and 1.5 nM, respectively. HTRF signals were read after 1 hour at room temperature on a PHERAstar FS plate reader (BMG Labtech). Data was analyzed with IDBS XLFit and GraphPad Prism 5.0 software using a three or four parameter dose response curve to determine IC50 for each compound.

Another experiment concerns the target CDK2 (Homo sapiens, UniProt P24941). Briefly: Enzymatic binding data against CDK2 (comparison of isomeric peaks). To be noted: Peak 1 vs Peak 2 of Example 2, TFA salts. Format: biochemical. As for the experimental part:
To a solution of 6-(1-(1-ethoxyethyl)-1H-pyrazol-4-yl)-5-(1-(trifluoromethyl)cyclobutoxy)-[1,2,4]triazolo[…] (20 mg, 0.05 mmol) and 4-(methylsulfonyl)cyclohexan-1-one (26 mg, 0.15 mmol) in DCE (0.8 mL) was added TFA (0.2 mL) and sodium triacetoxyborohydride (31 mg, 0.15 mmol) and the resulting solution was stirred at 60° C. After 4 h, a second aliquot of 4-(methylsulfonyl)cyclohexan-1-one (13 mg, 0.08 mmol) and sodium triacetoxyborohydride (15 mg, 0.08 mmol) was added and stirring was continued overnight at 60° C. The volatiles were removed and the residue was dissolved in CH3CN and purified by prep-HPLC (Sunfire C18 column, eluting with a gradient of 21% to 39% acetonitrile/water containing 0.1% TFA over 12 minutes at a flow rate of 60 mL/min) to afford two isomeric peaks as their TFA salts. Peak 1 eluted at 8.8 min and Peak 2 eluted at 9.9 min. […] LC-MS calculated for C20H25F3N7O3S (M+H)^+: m/z=500.2; found 500.2.

One may read the IC50 as the concentration that gives 50% inhibition. A higher IC50 goes with weaker potency. As to `CC(C)Oc1c(-c2cn[nH]c2)ncn2nc(NC3CCC(S(C)(=O)=O)CC3)nc12` (single isomer, unassigned) [Example 1, 8-Isopropoxy-N-(4-(methylsulfonyl)cyclohexyl)-7-(1H-pyrazol-4-yl)-[1,2,4]triazolo[1,5-c]pyrimidin-2-amine], on CDK2/Cyclin E1, the IC50 is at most 10 nM. In turn, `CS(=O)(=O)C1CCC(Nc2nc3cnc(-c4cn[nH]c4)c(OC4(C(F)(F)F)CCC4)n3n2)CC1` (single isomer, unassigned) [Example 2, N-(4-(Methylsulfonyl)cyclohexyl)-6-(1H-pyrazol-4-yl)-5-(1-(trifluoromethyl)cyclobutoxy)-[1,2,4]triazolo[1,5-a]pyrazin-2-amine] had an IC50 against CDK2/Cyclin E1 of at most 10 nM. Moreover, the “relative activity of the isomeric peaks against CDK2” value at CDK2 is listed as “more active isomer”.
